# Laboratory results from PubChem BioAssay (NCI).
#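 Tested at 5 concentrations; 48 h exposure; 96-well plates; endpoints linearly interpolated, else capped at highest concentration. Here, GI50 denotes the concentration required for 50% inhibition of growth. Definition used: TGI = concentration required for complete inhibition of growth.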
# Assays:
# Assay in all cases: growth of human tumour cells (NCI), 48 h
# MDA-MB-231 breast = tested on: MDA-MB-231 breast
# MOLT-4 leukemia = tested on: MOLT-4 leukemia
# HOP-62 NSCLC = tested on: HOP-62 NSCLC
# HS 578T breast = tested on: HS 578T breast
# MDA-MB-435 = tested on: MDA-MB-435
# U251 CNS = tested on: U251 CNS
# T-47D breast = tested on: T-47D breast
# SNB-75 CNS = tested on: SNB-75 CNS
# COLO 205 colon = tested on: COLO 205 colon
# HCT-15 colon = tested on: HCT-15 colon
Compound,TGI (MDA-MB-231 breast) [µM],TGI (MOLT-4 leukemia) [µM],TGI (HOP-62 NSCLC) [µM],TGI (HS 578T breast) [µM],TGI (MDA-MB-435) [µM],TGI (U251 CNS) [µM],TGI (T-47D breast) [µM],TGI (SNB-75 CNS) [µM],TGI (COLO 205 colon) [µM],TGI (HCT-15 colon) [µM],GI50 (HOP-62 NSCLC) [µM],GI50 (HS 578T breast) [µM],GI50 (MDA-MB-435) [µM],GI50 (U251 CNS) [µM],GI50 (T-47D breast) [µM],GI50 (SNB-75 CNS) [µM],GI50 (COLO 205 colon) [µM],GI50 (HCT-15 colon) [µM],GI50 (MDA-MB-231 breast) [µM],GI50 (MOLT-4 leukemia) [µM]
COc1cc(/C=C2\CCc3cc(OC)c(OC)cc3C2=O)cc(OC)c1,> 100,> 100,> 87.1,> 100,> 100,> 100,62.1,> 100,> 52.1,> 44.3,,,,,,,,,,
CCCCCC(/C=N/NC(N)=S)C(O)(C(F)(F)F)C(F)(F)F (stereo unspecified),> 10,> 10,> 10,> 10,> 10,> 10,> 10,> 10,> 10,> 10,,,,,,,,,,
OCC1CCCCN1Cc1nc2ccc(Cl)cc2[nH]1 (stereo unspecified),> 100,> 100,> 100,> 100,> 100,> 100,> 100,> 100,> 100,> 100,,,,,,,,,,
c1ccc(-c2cc(-c3cc(-c4ccccc4)n[nH]3)[nH]n2)cc1,> 100,> 100,> 100,> 100,> 100,> 100,> 100,> 100,> 100,> 100,,,,,,,,,,
COC(=O)[C@H]1ON2O[C@@H](O[C@H]3CCCC[C@@H]3C(C)(C)c3ccccc3)C[C@@H]3CC[C@H]1[C@@]32C,,> 100,> 100,> 100,> 100,> 100,> 100,> 100,> 100,> 100,,,,,,,,,,
C[C@@H]1CCN(C(=O)CC#N)C[C@@H]1N(C)c1ncnc2[nH]ccc12,,,> 100,> 100,> 100,> 100,> 100,84.5,> 100,> 100,40.6,30.4,> 100,> 100,> 100,12.9,> 100,> 100,,
CC1CSc2nc3[nH]c(=S)[nH]c3c(=O)n2C1 (stereo unspecified),> 100,> 100,> 100,,> 100,> 100,> 100,> 100,> 100,> 100,,,,,,,,,,
N#Cc1nc(Cc2ccccc2)oc1N,> 100,> 100,> 100,> 100,> 100,> 100,> 100,,> 100,> 100,,,,,,,,,,
O=[N+]([O-])C(=C/C1CCCCC1)/C(=C\C1CCCCC1)[N+](=O)[O-],8.98,> 26.1,19.1,18.4,20.4,14.7,38,31.3,9.29,3.76,,,,,,,,,,
CCOC(=O)c1ccc(Nc2nc3ccc(C(F)(F)F)cc3nc2-c2ccccc2)cc1,,> 100,> 100,> 100,> 100,> 100,87.1,> 100,,> 100,,,,,,,,,,
Cc1cc2nc3c(C(O)CO)nn(-c4ccccc4)c3nc2cc1C (stereo unspecified),55,> 100,44,70.9,47.9,38.4,91.5,51.9,,42.6,,,,,,,,,,
CCOC(=O)/C=C/[C@H](O[Si](c1ccccc1)(c1ccccc1)c1ccccc1)C(C)(C)C,> 31.6,> 31.6,> 31.6,> 31.6,> 31.6,> 31.6,> 31.6,> 31.6,> 31.6,> 31.6,,,,,,,,,,
CNC=O,> 10000,> 10000,< 3980,> 10000,> 10000,> 10000,> 10000,> 10000,> 10000,> 10000,,,,,,,,,,
O/N=C1\CC2(N3CCOCC3)CCC1(Cc1ccccc1)CC2,67,> 100,47.8,,> 100,38.3,> 100,34.9,> 100,> 100,,,,,,,,,,
C/C=C/[C@@H]1O[C@H](CC#C[Si](C)(C)C)[C@@]2(C=O)C(C)=CC[C@H](C(C)C)[C@@H]12,36.6,34.5,82.7,> 100,42.5,34.4,> 100,54.1,66.1,48.5,,,,,,,,,,
O=C(c1ccc(Cl)cc1)N(C(=S)N1CCN(c2ccccc2)CC1)c1ccccc1,,> 100,> 100,,,> 100,,> 100,> 100,> 100,,,,,,,,,,
C=CCC1(O)c2cccc(O)c2C(=O)c2cccc(O)c21 (stereo unspecified),53.4,53.6,49.7,41.8,50.8,45.5,30.2,52,,51.8,,,,,,,,,,
CCCN(CCC)C(=O)Cc1c2n(c3ccccc13)Cc1ccccc1-2,,> 100,> 100,,,> 100,,> 100,> 100,> 100,,,,,,,,,,
CCOC(=O)c1c(NC(=O)c2ccccc2)sc2c1CCC2,> 100,> 100,> 100,> 100,,,> 100,> 100,> 100,> 100,,,,,,,,,,
C/C(=C1/N=C(c2cc([N+](=O)[O-])ccc2Cl)N(C2=CC=C(Cl)CC2)C1=O)c1cc2ccccc2oc1=O,,> 100,> 100,,,> 100,,> 100,> 100,,,,,,,,,,,
COC(=O)c1cc(C)ccc1CC(Cc1ccccc1C)C(=O)OC (stereo unspecified),> 100,24.7,> 100,> 100,43.8,,> 100,> 100,> 100,> 100,,,,,,,,,,
CO/N=C1/C(n2[nH]c(=O)n(-c3ccccc3)c2=O)C2C=CC1n1c(=O)n(-c3ccccc3)c(=O)n12 (stereo unspecified),> 100,> 100,,> 100,> 100,> 100,> 100,> 100,> 100,> 100,,,,,,,,,,
COc1ccc(/C=N/n2c(C)n[nH]c2=O)cc1,> 100,> 100,> 100,,> 100,> 100,> 100,> 100,> 100,> 100,,,,,,,,,,
OCCCN(CCc1ccc(Cl)c(Cl)c1)CCN1CCCC1,> 100,> 100,> 100,> 100,53.4,> 100,> 100,> 100,,> 100,,,,,,,,,,

Compound,TGI (MDA-MB-231 breast) [µM],TGI (MOLT-4 leukemia) [µM],TGI (HOP-62 NSCLC) [µM],TGI (HS 578T breast) [µM],TGI (MDA-MB-435) [µM],TGI (U251 CNS) [µM],TGI (T-47D breast) [µM],TGI (SNB-75 CNS) [µM],TGI (COLO 205 colon) [µM],TGI (HCT-15 colon) [µM],GI50 (HOP-62 NSCLC) [µM],GI50 (HS 578T breast) [µM],GI50 (MDA-MB-435) [µM],GI50 (U251 CNS) [µM],GI50 (T-47D breast) [µM],GI50 (SNB-75 CNS) [µM],GI50 (COLO 205 colon) [µM],GI50 (HCT-15 colon) [µM],GI50 (MDA-MB-231 breast) [µM],GI50 (MOLT-4 leukemia) [µM]
O=C(/C=C/c1ccc(Cl)c(Cl)c1)CCN1CCN(CCC(=O)/C=C/c2ccc(Cl)c(Cl)c2)CC1,56.7,> 100,60.6,,55.1,49.2,77.4,> 100,70.8,34.1,,,,,,,,,,
CCCC(=O)N[C@@H](Cc1cc(I)c(O)c(I)c1)C(=O)NCCCNCCCCNCCCNC(=O)[C@@H](N)CCCN=C(N)N,,> 100,> 100,,,> 100,,,> 100,> 100,,,,,,,,,,
C/C(=N/NC(=S)N(Cc1ccccn1)Cc1ccccn1)c1cnccn1,21.7,> 34.4,14.6,55.7,35.6,> 47.9,> 33.8,17.2,,87.1,,,,,,,,,,
FC(F)(F)C1(C(F)(F)F)OC(Cl)(Cl)C(Cl)(Cl)O1,> 10,,> 10,> 10,> 10,> 10,> 10,,> 10,> 10,,,,,,,,,,
C=C(Br)C(Cl)(CBr)CCC(Br)C(C)(C)Cl (stereo unspecified),> 10,> 10,> 10,,> 10,> 10,> 10,> 10,> 10,,,,,,,,,,,
Nc1ccccc1Sc1ccc(Cl)cc1,,,> 100,,,36.2,,88.9,44.1,> 100,,,,,,,,,,
Cc1ccc(S(=O)(=O)OCC23CCC(C4CC42)C2CC23)cc1 (stereo unspecified),,> 100,> 100,,,> 100,,,> 100,> 100,,,,,,,,,,
C=C1CC(CNc2cc(Cl)nc(N)n2)C1,> 100,> 100,> 100,> 100,> 100,> 100,,> 100,> 100,> 100,,,,,,,,,,
CCOP(=O)(OCC)C(Cc1ccccc1)N=C(c1ccccc1)c1ccccc1 (stereo unspecified),,25.8,35.2,26.6,27.8,28.4,26.6,24.2,28.7,25,,,,,,,,,,
CSCCCNC(=O)c1csc([C@@H](CSC)NC(=O)CCNC(=O)[C@@H](NC(=O)OCC(Br)(Br)Br)C(C)O)n1 (stereo partly specified),> 100,> 100,> 100,> 100,> 100,> 100,,> 100,> 100,> 100,,,,,,,,,,
CC(C)(C)OC(=O)/C=C/C(=O)O/C=C/[N+](=O)[O-],> 100,,> 100,> 100,> 100,> 100,,> 100,> 100,> 100,,,,,,,,,,
CC1OC(OC2C(Oc3cc(O)c4c(=O)cc(-c5ccc(O)cc5)oc4c3)OC(CO)C(O)C2O)C(O)C(O)C1O (stereo unspecified),,> 100,> 100,,,> 100,,> 100,> 100,> 100,,,,,,,,,,
O=S(=O)(O)Nc1ccc(-c2nc3ccccc3s2)cc1Cl,> 100,,> 100,> 100,> 100,> 100,> 100,> 100,> 100,> 100,,,,,,,,,,
COc1ccc(/C=N/n2c(Cc3ccc(Cl)cc3)n[nH]c2=O)cc1,26.6,> 100,33.9,,> 100,33.6,> 100,38.5,> 100,> 100,,,,,,,,,,
Cc1ccc(-c2c(C#N)c(S)n(NS(=O)(=O)c3ccccc3)c(=O)c2C#N)cc1,> 100,61.1,,,78.9,83.5,,97.2,> 100,50.5,,,,,,,,,,
C=CCN1C(=O)/C(=C/c2cccs2)N=C1SC1OC(COC(=O)c2ccccc2)C(OC(=O)c2ccccc2)C1OC(=O)c1ccccc1 (stereo unspecified),> 100,> 100,> 100,,> 100,> 100,,> 100,> 100,> 100,,,,,,,,,,
CCO[C@H]1C[C@@H](c2ccccc2)[C@]2(C)C[C@H](C(=O)OC)ON2O1,> 100,> 100,> 100,> 100,> 100,> 100,> 100,,> 100,> 100,,,,,,,,,,
CC1(C)N=C(N)N=C(N)N1c1ccc(CCCCc2ccc(Cl)cc2Cl)cc1,16.6,> 100,10.6,22.9,13.9,15.2,23.9,,4.88,> 100,,,,,,,,,,
CC(=O)/C=C/c1c[nH]c(=O)[nH]c1=O,,783,765,,,503,,681,395,523,,,,,,,,,,
Cc1ccc(NNc2cc(=O)[nH]c(=O)[nH]2)cc1Cl,29.9,58.3,> 100,> 100,,30,25.1,> 100,30.6,22.7,,,,,,,,,,
O=C(/C(Cl)=C/c1ccccc1)c1ccccc1,20.6,> 21.3,41.5,15,9.52,> 40.1,27.1,26.9,,8.35,,,,,,,,,,
COc1cc2cnc3c(c2cc1OC)Cc1cc2c(cc1-3)OCO2,> 100,0.205,17.4,> 100,,0.517,> 100,> 49.3,> 100,> 100,< 0.0268,< 0.01,,< 0.01,1.71,0.0109,< 0.01,< 0.01,0.179,< 0.01
COc1ccc(S(=O)Cc2cc(OC)ccc2OC)cc1 (stereo unspecified),> 100,> 100,> 100,,> 100,> 100,> 100,> 100,> 100,> 100,,,,,,,,,,
